Results published in patent publication US20170020890A1, “PHARMACEUTICAL COMPOSITION COMPRISING FATTY ACID DERIVATIVE” (SUCAMPO AG, priority 2015, published 2017).
Peptide text beside a SMILES is read from it.

Assay: Solubility of sweetening agents in medium-chain triglycerides (MCT)
Details: not given
Description: 18 mg of neotame, 20 mg of saccharin, 1 mg of sodium saccharin or 5 mg of thaumatin was mixed with medium-chain triglycerides (MCT; USP/NF) to give the total weight of 180 g, 20 g, 100 g or 500 g respectively.
Solubility and sensory tests of sweetening agents were conducted. Specifically, 7.2 mg of neotame, 20 mg of saccharin or 5 mg of sucralose was mixed with medium-chain triglycerides (MCT; USP/NF) to give the total weight of 40 g, 20 g or 100 g, respectively. Additionally, 1 mg of a sweetening agent was mixed with medium-chain triglycerides (MCT; USP/NF) to give the total weight of its mixtures of 100 g. The sweetening agent was sodium saccharin, thaumatin, aspartame, acesulfame potassium, sucrose, glucose, fructose, lactose, D-sorbitol, or xylitol.

| Molecule | Solubility in MCT [w/w %] | Solubility in MCT, in words | Solubility to MCT [%] |
| --- | --- | --- | --- |
| thaumatin | <0.001 | did not solve in MCT | <0.001 |
| COC(=O)[C@H](Cc1ccccc1)NC(=O)[C@H](CC(=O)O)NCCC(C)(C)C [Neotame] | 0.018 | solved in MCT | 0.01 |
| O=C1NS(=O)(=O)c2ccccc21 [Saccharin, 2H-1λ^6,2-benzothiazol-1,1,3-trione] | 0.1 | solved in MCT | 0.1 |
| OC[C@H]1O[C@H](O[C@]2(CCl)O[C@H](CCl)[C@@H](O)[C@@H]2O)[C@H](O)[C@@H](O)[C@H]1Cl [Sucralose, 1,6-Dichloro-1,6-dideoxy-β-D-fructofuranosyl-4-chloro-4-deoxy-α-D-galactopyranoside] | 0.005 | solved in MCT |  |
| CC1=CC(=O)NS(=O)(=O)O1 [Acesulfame potassium, acesulfame potassium] | <0.001 |  |  |
| COC(=O)[C@H](Cc1ccccc1)NC(=O)[C@@H](N)CC(=O)O [Aspartame, aspartame] (H-Asp-Phe-OMe) | <0.001 |  |  |
| OC[C@@H](O)[C@H](O)[C@@H](O)CO [Xylitol, xylitol] | <0.001 |  |  |
| OC[C@H]1O[C@@](CO)(O[C@H]2O[C@H](CO)[C@@H](O)[C@H](O)[C@H]2O)[C@@H](O)[C@@H]1O [Sucrose, sucrose] | <0.001 |  |  |
| OC[C@@H](O)[C@@H](O)[C@H](O)[C@@H](O)CO [D-Sorbitol, D-sorbitol] | <0.001 |  |  |

Same assay, conditions: Example 1; medium-chain triglycerides (USP/NF)

| Molecule | Solubility to MCT [%] |
| --- | --- |
| O=C1NS(=O)(=O)c2ccccc21.[Na] [Sodium saccharin, sodium saccharin] | <0.001 |

Same assay, conditions: Example 5; medium-chain triglycerides (USP/NF)

| Molecule | Solubility in MCT [w/w %] |
| --- | --- |
| O=C1NS(=O)(=O)c2ccccc21.[Na] [Sodium saccharin, sodium saccharin] | <0.001 |
| O=C(CO)[C@@H](O)[C@H](O)[C@H](O)CO [Fructose, fructose] | <0.001 |

Same assay, conditions: Examples 1 and 5

| Molecule | Solubility in MCT, in words |
| --- | --- |
| O=C1NS(=O)(=O)c2ccccc21.[Na] [Sodium saccharin, sodium saccharin] | did not solve in MCT |
